Laboratory results reported in patent EP2970215B1, “PYRROLIDINE DERIVATIVES, PHARMACEUTICAL COMPOSITIONS CONTAINING THEM, AND THEIR USE IN THERAPY” (AbbVie Deutschland GmbH & Co. KG, priority 2013, dated 2014).

Molecular target: T1, human GlyT1c transporter (Homo sapiens, UniProt P48067)
T1 construct: expressed in transfected cells; host or cells: CHO cells (recombinant; line hGlyT1c_5_CHO is named for the uptake assay)
T1 sequence (P48067 1-706): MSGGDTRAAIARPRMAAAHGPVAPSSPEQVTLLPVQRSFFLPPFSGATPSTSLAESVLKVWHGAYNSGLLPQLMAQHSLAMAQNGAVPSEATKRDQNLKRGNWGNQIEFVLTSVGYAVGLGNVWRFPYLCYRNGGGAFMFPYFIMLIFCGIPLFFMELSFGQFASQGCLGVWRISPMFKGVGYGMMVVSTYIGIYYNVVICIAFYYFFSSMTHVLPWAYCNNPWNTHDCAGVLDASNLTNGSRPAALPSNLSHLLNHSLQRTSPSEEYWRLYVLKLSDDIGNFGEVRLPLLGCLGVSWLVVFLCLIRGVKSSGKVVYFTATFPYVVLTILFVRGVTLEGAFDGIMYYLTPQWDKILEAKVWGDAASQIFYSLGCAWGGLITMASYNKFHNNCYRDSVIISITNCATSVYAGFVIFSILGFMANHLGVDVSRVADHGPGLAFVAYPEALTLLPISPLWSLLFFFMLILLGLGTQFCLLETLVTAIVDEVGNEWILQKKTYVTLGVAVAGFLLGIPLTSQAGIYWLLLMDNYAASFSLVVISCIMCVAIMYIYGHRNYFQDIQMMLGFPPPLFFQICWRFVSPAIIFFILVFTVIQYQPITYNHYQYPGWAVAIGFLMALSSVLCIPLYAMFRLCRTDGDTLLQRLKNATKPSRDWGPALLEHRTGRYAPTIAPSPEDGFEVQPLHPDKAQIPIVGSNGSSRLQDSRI
Experiment: Radioligand binding assay using recombinant CHO cell membranes expressing human GlyT1
Settings: radioligand binding to human GlyT1c transporter-expressing membranes
From the text: 2. Radioligand binding assays using recombinant CHO cell membranes expressing human GlyT1: […]

| Ki | Structure (SMILES) |
| --- | --- |
| ≤ 100 nM | Cn1cnc(S(=O)(=O)N2CC(Cc3cccc(Cl)c3)C(c3ccc(F)cc3)C2)c1 (stereo not drawn) [Example 182, 4-{[3-(3-chlorobenzyl)-4-(4-fluorophenyl)pyrrolidin-1-yl]sulfonyl}-1-methyl-1H-imidazole] |
| ≤ 1000 nM | Cn1cnc(S(=O)(=O)N2CC(Cc3ccccc3Br)C(c3ccccc3Br)C2)c1 (stereo not drawn) [Example 205, 4-{[3-(2-bromobenzyl)-4-(2-bromophenyl)pyrrolidin-1-yl]sulfonyl}-1-methyl-1H-imidazole] |
| ≤ 10000 nM | Cn1cnc(S(=O)(=O)N2CC(Oc3ccccc3)C(c3ccccc3)C2)c1 (stereo not drawn) [Example 277, 1-methyl-4-[(3-phenoxy-4-phenylpyrrolidin-1-yl)sulfonyl]-1H-imidazole] |
| ≤ 100 nM | Cn1cnc(S(=O)(=O)N2CC(Nc3ccc(F)c(C(F)F)c3)C(c3ccc(F)cc3)C2)c1 (stereo not drawn) [Example 310, N-[3-(difluoromethyl)-4-fluorophenyl]-4-(4-fluorophenyl)-1-[(1-methyl-1H-imidazol-4-yl)sulfonyl]pyrrolidin-3-amine] |
| ≤ 1000 nM | Cn1cnc(S(=O)(=O)N2C[C@@H](NCc3ccc(C(F)(F)F)cc3Cl)[C@H](c3ccc(F)cc3)C2)c1 [Example 321, (3S,4R)-N-[2-chloro-4-(trifluoromethyl)benzyl]-4-(4-fluorophenyl)-1-[(1-methyl-1H-imidazol-4-yl)sulfonyl]pyrrolidin-3-amine] |
| ≤ 10 nM | Cn1cnc(S(=O)(=O)N2C[C@H](NCc3ccc(C(F)(F)F)cc3Cl)[C@@H](c3ccc(F)cc3)C2)c1 [Example 322, (3R,4S)-N-[2-chloro-4-(trifluoromethyl)benzyl]-4-(4-fluorophenyl)-1-[(1-methyl-1H-imidazol-4-yl)sulfonyl]pyrrolidin-3-amine] |
| ≤ 10000 nM | Cn1cnc(S(=O)(=O)N2C[C@@H](Nc3ccc(F)cc3)[C@H](c3ccc(F)cc3)C2)c1 [Example 324, (3S,4R)-N,4-bis(4-fluorophenyl)-1-[(1-methyl-1H-imidazol-4-yl)sulfonyl]pyrrolidin-3-amine] |
| ≤ 1000 nM | Cn1cnc(S(=O)(=O)N2C[C@@H](Nc3cccc(Cl)c3)[C@H](c3ccc(F)cc3)C2)c1 [Example 325, (3S,4R)-N-(3-chlorophenyl)-4-(4-fluorophenyl)-1-[(1-methyl-1H-imidazol-4-yl)sulfonyl]pyrrolidin-3-amine] |
| ≤ 100 nM | Cn1cnc(S(=O)(=O)N2C[C@H](Nc3cccc(Cl)c3)[C@@H](c3ccc(F)cc3)C2)c1 [Example 328, (3R,4S)-N-(3-chlorophenyl)-4-(4-fluorophenyl)-1-[(1-methyl-1H-imidazol-4-yl)sulfonyl]pyrrolidin-3-amine] |
| ≤ 100 nM | Cn1cnc(S(=O)(=O)N2C[C@H](Nc3ccc(F)cc3)[C@@H](c3ccc(F)cc3)C2)c1 [Example 330, (3R,4S)-N,4-bis(4-fluorophenyl)-1-[(1-methyl-1H-imidazol-4-yl)sulfonyl]pyrrolidin-3-amine] |
| ≤ 1000 nM | Cn1cnc(S(=O)(=O)N2CC(c3ccccc3)C(Cc3cccc(Cl)c3)C2=O)c1 (stereo not drawn) [Example 331, 3-(3-chlorobenzyl)-1-[(1-methyl-1H-imidazol-4-yl)sulfonyl]-4-phenylpyrrolidin-2-one] |
| ≤ 10000 nM | Cn1cnc(S(=O)(=O)N2CC(c3ccc(F)cc3)C(c3ccccc3Cl)C2)c1 (stereo not drawn) [Example 339, 4-{[3-(2-chlorophenyl)-4-(4-fluorophenyl)pyrrolidin-1-yl]sulfonyl}-1-methyl-1H-imidazole] |
| ≤ 1000 nM | Cn1cnc(S(=O)(=O)N2CC(c3ccc(F)cc3)C(c3ccc(Cl)cc3)C2)c1 (stereo not drawn) [Example 340, 4-{[3-(4-chlorophenyl)-4-(4-fluorophenyl)pyrrolidin-1-yl]sulfonyl}-1-methyl-1H-imidazole] |
| ≤ 100 nM | CC(C)Oc1cccc(NC2CN(S(=O)(=O)c3cn(C)cn3)CC2c2ccc(F)cc2)c1 (stereo not drawn) [Example 349, 4-(4-fluorophenyl)-1-[(1-methyl-1H-imidazol-4-yl)sulfonyl]-N-[3-(propan-2-yloxy)phenyl]pyrrolidin-3-amine] |
| > 10000 nM | Cn1cnc(S(=O)(=O)N2CC(Nc3cccnn3)C(c3ccc(F)cc3)C2)c1 (stereo not drawn) [Example 350, N-{4-(4-fluorophenyl)-1-[(1-methyl-1H-imidazol-4-yl)sulfonyl]pyrrolidin-3-yl}pyridazin-3-amine] |
| ≤ 100 nM | Cn1cnc(S(=O)(=O)N2C[C@H](Nc3cccc(F)c3)[C@@H](c3ccc(F)cc3)C2)c1 [Example 353, (3R,4S)-N-(3-fluorophenyl)-4-(4-fluorophenyl)-1-[(1-methyl-1H-imidazol-4-yl)sulfonyl]pyrrolidin-3-amine] |
| ≥ 10000 nM | Cn1cnc(S(=O)(=O)N2C[C@H](NC(=O)C3(C(F)(F)F)CC3)[C@@H](c3ccc(F)cc3)C2)c1 [Example 375, N-{(3R,4S)-4-(4-fluorophenyl)-1-[(1-methyl-1H-imidazol-4-yl)sulfonyl]pyrrolidin-3-yl}-1-(trifluoromethyl)cyclopropanecarboxamide] |
| ≤ 1000 nM | Cn1cnc(S(=O)(=O)N2C[C@H](NCC3(C(F)(F)F)CC3)[C@@H](c3ccc(F)cc3)C2)c1 [Example 386, (3R,4S)-4-(4-fluorophenyl)-1-[(1-methyl-1H-imidazol-4-yl)sulfonyl]-N-{[-(trifluoromethyl)cyclopropyl]methyl}pyrrolidin-3-amine] |
| ≤ 100 nM | Cn1cnc(S(=O)(=O)N2C[C@H](NCc3ccc(C(F)(F)F)o3)[C@@H](c3ccc(F)cc3)C2)c1 [Example 391, (3R,4S)-4-(4-fluorophenyl)-1-[(1-methyl-1H-imidazol-4-yl)sulfonyl]-N-{[5-(trifluoromethyl)furan-2-yl]methyl}pyrrolidin-3-amine] |
| ≤ 100 nM | Cn1cnc(S(=O)(=O)N2C[C@H](Nc3cccc(C(C)(O)C(F)(F)F)c3)[C@@H](c3ccc(F)cc3)C2)c1 (stereo partly drawn) [Example 392, 1,1,1-trifluoro-2-[3-({(3R,4S)-4-(4-fluorophenyl)-1-[(1-methyl-1H-imidazol-4-yl)sulfonyl]pyrrolidin-3-yl}amino)phenyl]propan-2-ol] |
| ≤ 10 nM | Cn1cnc(S(=O)(=O)N2C[C@H](NCc3ccc(Cl)s3)[C@@H](c3ccc(F)cc3)C2)c1 [Example 393, (3R,4S)-N-[(5-chlorothiophen-2-yl)methyl]-4-(4-fluorophenyl)-1-[(1-methyl-1H-imidazol-4-yl)sulfonyl]pyrrolidin-3-amine] |
| ≤ 10 nM | Cn1cnc(S(=O)(=O)N2C[C@H](Nc3cc(C(F)(F)F)ccn3)[C@@H](c3ccccc3)C2)c1 [Example 396, N-{(3R,4S)-1-[(1-methyl-1H-imidazol-4-yl)sulfonyl]-4-phenylpyrrolidin-3-yl}-4-(trifluoromethyl)pyridin-2-amine] |
| ≤ 10 nM | Cn1cnc(S(=O)(=O)N2C[C@H](Nc3cccc(C(F)(F)F)c3)[C@@H](c3ccccc3)C2)c1 [Example 397, (3R,4S)-1-[(1-methyl-1H-imidazol-4-yl)sulfonyl]-4-phenyl-N-[3-(trifluoromethyl)phenyl]pyrrolidin-3-amine] |
| ≤ 100 nM | Cn1cnc(S(=O)(=O)N2C[C@H](Nc3cccc(C(C)(O)C(F)(F)F)c3)[C@@H](c3ccccc3)C2)c1 (stereo partly drawn) [Example 399, 1,1,1-trifluoro-2-[3-({(3R,4S)-1-[(1-methyl-1H-imidazol-4-yl)sulfonyl]-4-phenylpyrrolidin-3-yl}amino)phenyl]propan-2-ol] |
| ≤ 1000 nM | Cn1cnc(S(=O)(=O)N2C[C@H](Nc3cc(F)ccn3)[C@@H](c3ccccc3)C2)c1 [Example 405, 4-fluoro-N-{(3R,4S)-1-[(1-methyl-1H-imidazol-4-yl)sulfonyl]-4-phenylpyrrolidin-3-yl}pyridin-2-amine] |

| Structure (SMILES) | Ki |
| --- | --- |
| Cn1cnc(S(=O)(=O)N2CC(Cc3cccc(Cl)c3)C(C3CC3)C2)c1 (stereo not drawn) [Example 309, 4-{[3-(3-chlorobenzyl)-4-cyclopropylpyrrolidin-1-yl]sulfonyl}-1-methyl-1H-imidazole] | ≤ 1000 nM |
| Cn1cnc(S(=O)(=O)N2C[C@H](Nc3cccc(C(F)(F)F)n3)[C@@H](c3ccc(F)cc3)C2)c1 [Example 351, N-{(3R,4S)-4-(4-fluorophenyl)-1-[(1-methyl-1H-imidazol-4-yl)sulfonyl]pyrrolidin-3-yl}-6-(trifluoromethyl)pyridin-2-amine] | ≤ 1000 nM |
| Cn1cnc(S(=O)(=O)N2C[C@@H](Nc3ccc(F)c(Cl)c3)[C@H](c3ccc(F)cc3)C2)c1 [Example 387, (3S,4R)-N-(3-chloro-4-fluorophenyl)-4-(4-fluorophenyl)-1-[(1-methyl-1H-imidazol-4-yl)sulfonyl]pyrrolidin-3-amine] | ≤ 10000 nM |
| Cn1cnc(S(=O)(=O)N2C[C@H](NCc3ccc(C(F)(F)F)cc3Cl)[C@@H](c3ccccc3)C2)c1 [Example 394, (3R,4S)-N-[2-chloro-4-(trifluoromethyl)benzyl]-1-[(1-methyl-1H-imidazol-4-yl)sulfonyl]-4-phenylpyrrolidin-3-amine] | ≤ 10 nM |
| Cn1cnc(S(=O)(=O)N2C[C@@H](NCc3ccc(C(F)(F)F)cc3Cl)[C@H](c3ccccc3)C2)c1 [Example 395, (3S,4R)-N-[2-chloro-4-(trifluoromethyl)benzyl]-1-[(1-methyl-1H-imidazol-4-yl)sulfonyl]-4-phenylpyrrolidin-3-amine] | ≤ 1000 nM |
